According to patent publication US12595266B2, “Pesticidally active heterocyclic derivatives with sulfur containing substituents” (SYNGENTA CROP PROTECTION AG, priority 2020, dated 2026):

Experiments:
Type in all cases: in vivo
[1] = system: Diabrotica balteata (Corn Root Worm); experiment: Activity against Diabrotica balteata (corn root worm); conditions: 96 h, application rate of 200 ppm, maize sprouts sprayed, L2 larvae, 4 days after infestation, read-out: effect in at least one of the two categories (mortality or growth inhibition)
Protocol: Example B3: Activity Against Diabrotica balteata (Corn Root Worm)
Maize sprouts placed onto an agar layer in 24-well microtiter plates were treated with aqueous test solutions prepared from 10′000 ppm DMSO stock solutions by spraying. After drying, the plates were infested with L2 larvae (6 to 10 per well). The samples were assessed for mortality and growth inhibition in comparison to untreated samples 4 days after infestation.

[2] = system: Spodoptera littoralis (Egyptian Cotton Leaf Worm); experiment: Activity against Spodoptera littoralis (Egyptian cotton leaf worm); conditions: foliar, 72 h, application rate of 200 ppm, cotton leaf discs sprayed, L1 larvae, 3 days after infestation, read-out: control (at least one of mortality, anti-feedant effect, growth inhibition)
Protocol: Example B8: Activity Against Spodoptera littoralis (Egyptian Cotton Leaf Worm)
Cotton leaf discs were placed onto agar in 24-well microtiter plates and sprayed with aqueous test solutions prepared from 10′000 ppm DMSO stock solutions. After drying the leaf discs were infested with five L1 larvae. The samples were assessed for mortality, anti-feeding effect, and growth inhibition in comparison to untreated samples 3 days after infestation. Control of Spodoptera littoralis by a test sample is given when at least one of the categories mortality, anti-feedant effect, and growth inhibition is higher than the untreated sample.

[3] = system: Carpocapsa (Cydia) Pomonella (Codling Moth); experiment: Activity against Carpocapsa (Cydia) pomonella (codling moth), larvicide, feeding/contact; conditions: 336 h, application rate of 12.5 ppm, paraffin-coated diet cubes sprayed, L1 larvae, 14 days after infestation, 26-27° C.
Protocol: Example B10: Activity Against Carpocapsa (Cydia) Pomonella (Codling Moth) Larvicide, Feeding/Contact
Diet cubes coated with paraffin were sprayed with diluted test solutions in an application chamber. After drying off the treated cubes (10 replicates) were infested with 1 L1 larvae. Samples were incubated at 26-27° C. and checked 14 days after infestation for mortality and growth inhibition.

[4] = system: Myzus persicae (Green Peach Aphid); experiment: Activity against Myzus persicae (green peach aphid), feeding/contact activity; conditions: foliar, 144 h, application rate of 200 ppm, sunflower leaf discs sprayed, aphid population of mixed ages, 6 days after infestation
Protocol: Example B6: Activity Against Myzus persicae (Green Peach Aphid) Feeding/Contact Activity
Sunflower leaf discs were placed onto agar in a 24-well microtiter plate and sprayed with aqueous test solutions prepared from 10′000 ppm DMSO stock solutions. After drying, the leaf discs were infested with an aphid population of mixed ages. The samples were assessed for mortality 6 days after infestation.

[5] = system: Plutella xylostella (Diamond Back Moth); experiment: Activity against Plutella xylostella (diamond back moth); conditions: 192 h, application rate of 200 ppm, artificial diet, Plutella eggs, 8 days after infestation, read-out: effect in at least one of the two categories (mortality or growth inhibition)
Protocol: Example B7: Activity Against Plutella xylostella (Diamond Back Moth)
24-well microtiter plates with artificial diet were treated with aqueous test solutions prepared from 10′000 ppm DMSO stock solutions by pipetting. After drying, Plutella eggs were pipetted through a plastic stencil onto a gel blotting paper and the plate was closed with it. The samples were assessed for mortality and growth inhibition in comparison to untreated samples 8 days after infestation.

[6] = system: Euschistus heros (Neotropical Brown Stink Bug); experiment: Activity against Euschistus heros (neotropical brown stink bug); conditions: 120 h, application rate of 200 ppm, soybean leaves sprayed, N2 nymphs, 5 days after infestation, read-out: effect in at least one of the two categories (mortality or growth inhibition)
Protocol: Example B4: Activity Against Euschistus heros (Neotropical Brown Stink Bug)
Soybean leaves on agar in 24-well microtiter plates were sprayed with aqueous test solutions prepared from 10′000 ppm DMSO stock solutions. After drying the leaves were infested with N2 nymphs. The samples were assessed for mortality and growth inhibition in comparison to untreated samples 5 days after infestation.

[7] = system: Chilo suppressalis (Striped Rice Stemborer); experiment: Activity against Chilo suppressalis (striped rice stemborer); conditions: 144 h, application rate of 200 ppm, artificial diet, L2 larvae, 6 days after infestation, read-out: control (at least one of mortality, anti-feedant effect, growth inhibition)
Protocol: Example B2: Activity Against Chilo suppressalis (Striped Rice Stemborer)
24-well microtiter plates with artificial diet were treated with aqueous test solutions prepared from 10′000 ppm DMSO stock solutions by pipetting. After drying, the plates were infested with L2 larvae (6-8 per well). The samples were assessed for mortality, anti-feeding effect, and growth inhibition in comparison to untreated samples 6 days after infestation. Control of Chilo suppressalis by a test sample is given when at least one of the categories mortality, anti-feedant effect, and growth inhibition is higher than the untreated sample.

[8] = system: Frankliniella occidentalis (Western Flower Thrips); experiment: Activity against Frankliniella occidentalis (western flower thrips), feeding/contact activity; conditions: foliar, 168 h, application rate of 200 ppm, sunflower leaf discs sprayed, population of mixed ages, 7 days after infestation
Protocol: Example B5: Activity Against Frankliniella occidentalis (Western Flower Thrips) Feeding/Contact Activity
Sunflower leaf discs were placed on agar in 24-well microtiter plates and sprayed with aqueous test solutions prepared from […] stock solutions. After drying the leaf discs were infested with a Frankliniella population of mixed ages. The samples were assessed for mortality 7 days after infestation.

CCS(=O)(=O)c1c(N2Cc3cc4c(cc3C2=O)OC(F)(F)O4)nc(-c2ccc(C3(C#N)CC3)cc2)n1C [Compound P2, 1-[4-[4-(2,2-difluoro-7-oxo-5H-[1,3]dioxolo[4,5-f]isoindol-6-yl)-5-ethylsulfonyl-1-methyl-imidazol-2-yl]phenyl]cyclopropanecarbonitrile]
≥ 80%: percent effect (mortality or growth inhibition) at 200 ppm [1] | percent control (mortality, anti-feedant effect or growth inhibition) at 200 ppm [2] | mortality at 12.5 ppm [3] | mortality at 200 ppm [4] | percent effect (mortality or growth inhibition) at 200 ppm [5] | percent effect (mortality or growth inhibition) at 200 ppm [6] | percent control (mortality, anti-feedant effect or growth inhibition) at 200 ppm [7] | mortality at 200 ppm [8]
